Measurements as given in ChEMBL document CHEMBL1151436, “In vitro evaluation of the activities of telavancin, cefazolin, and vancomycin against methicillin-susceptible and methicillin-resistant Staphylococcus aureus in peritoneal dialysate” (Antimicrob Agents Chemother, 2007).
Values after ≈ are worked out from the molar mass of the structure shown. Active and inactive are the calls of the source. No cut-off for these calls is given here.

Assays:
Staphylococcus aureus [1] = test: Antibacterial activity against methicillin-susceptible Staphylococcus aureus ATCC 29213 in peritoneal dialysis fluid administered as bolus dose 2 hrs after infection measured after 24 hrs by broth dilution method; format: functional
Staphylococcus aureus [2] = test: Antibacterial activity against methicillin-resistant Staphylococcus aureus ATCC 33592 in peritoneal dialysis fluid administered as bolus dose 2 hrs after infection measured after 24 hrs by broth dilution method; format: functional
Staphylococcus aureus [3] = test: Antibacterial activity against methicillin-susceptible Staphylococcus aureus ATCC 29213 in peritoneal dialysis fluid at 10 ug/mL administered as bolus dose 2 hrs after infection measured after 24 hrs by time-kill study; format: functional, organism-based
[4] = Protein binding in mouse plasma at 0.1 to 100 ug/mL by equilibrium dialysis; format: ADME, cell-free; conditions: read-out: PB (converted)
Staphylococcus aureus [5] = test: Antibacterial activity against methicillin-susceptible Staphylococcus aureus ATCC 29213 in peritoneal dialysis fluid at 50 ug/mL administered as bolus dose 2 hrs after infection measured after 24 hrs by time-kill study; format: functional, organism-based
Staphylococcus aureus [6] = test: Antibacterial activity against methicillin-resistant Staphylococcus aureus ATCC 33592 in peritoneal dialysis fluid at 10 ug/mL administered as bolus dose 2 hrs after infection measured after 24 hrs by time-kill study; format: functional, organism-based
Staphylococcus aureus [7] = test: Antibacterial activity against methicillin-resistant Staphylococcus aureus ATCC 33592 in peritoneal dialysis fluid at 50 ug/mL administered as bolus dose 2 hrs after infection measured after 24 hrs by time-kill study; format: functional, organism-based

| Structure (SMILES) | MIC (Staphylococcus aureus [1]) [µg/mL] | MIC (Staphylococcus aureus [2]) [µg/mL] | Activity (Staphylococcus aureus [3]) | fraction unbound [4] | Activity (Staphylococcus aureus [5]) | Activity (Staphylococcus aureus [6]) | Activity (Staphylococcus aureus [7]) |
| --- | --- | --- | --- | --- | --- | --- | --- |
| Cc1nnc(SCC2=C(C(=O)O)N3C(=O)[C@@H](NC(=O)Cn4cnnn4)[C@H]3SC2)s1 [CEFAZOLIN] | 0.5 (≈ 1.1 µM) | > 16 | – | – | – | – | – |
| CCCCCCCCCCNCCN[C@@]1(C)C[C@H](O[C@H]2[C@H](Oc3c4cc5cc3Oc3ccc(cc3Cl)[C@@H](O)[C@@H](NC(=O)[C@@H](CC(C)C)NC)C(=O)N[C@@H](CC(N)=O)C(=O)N[C@H]5C(=O)N[C@H]3C(=O)N[C@H](C(=O)N[C@H](C(=O)O)c5cc(O)c(CNCP(=O)(O)O)c(O)c5-c5cc3ccc5O)[C@H](O)c3ccc(c(Cl)c3)O4)O[C@H](CO)[C@@H](O)[C@@H]2O)O[C@@H](C)[C@H]1O [TELAVANCIN] | 0.25 (≈ 0.142 µM) | 0.125 (≈ 0.0712 µM) | Active | 0.05 | Active | Active | Active |
